According to the NIST ThermoML archive (doi:10.1016/j.tca.2012.03.028):

What was measured:
[1] = Crystal; Differential scanning calorimeter
[2] = Molar enthalpy of transition or fusion; settings: Crystal; Differential scanning calorimeter

| Normal melting temperature [1] [°C] | Molar enthalpy of transition or fusion [2] [kcal/mol] | Structure (SMILES) |
| --- | --- | --- |
| 147.2 | 7.45 | O=C(O)C(c1ccccc1)c1ccccc1 [2,2-diphenylethanoic acid] |
| 95 | 5.57 | O=C(C(=O)c1ccccc1)c1ccccc1 [1,2-diphenylethanedione] |
| 41.8 | 4.54 | O=C(Oc1ccccc1)c1ccccc1O [phenyl salicylate] |
| 122.4 | 4.3 | O=C(O)c1ccccc1 [benzoic acid] |

Second part, the molecule before the results:

| Structure (SMILES) | Normal melting temperature [1] [°C] | Molar enthalpy of transition or fusion [2] [kcal/mol] |
| --- | --- | --- |
| c1ccc(-c2ccccc2)cc1 [biphenyl] | 69.0 | 4.42 |
| c1ccc2ccccc2c1 [naphthalene] | 80.2 | 4.5 |
| CC(=O)Nc1ccccc1 [N-phenylethanamide] | 114.4 | 5.22 |
